Assay results reported in patent US20260217659A1, “COMPOUNDS, COMPOSITIONS AND USES THEREOF IN THE TREATMENT AND PREVENTION OF DISEASES AND CONDITIONS ASSOCIATE WITH OR AGGRAVATED BY IMPAIRED MITOPHAGY OR OXIDATIVE STRESS” (Yissum Research Development Company of The Hebrew …, priority 2023, published 2026).
pIC50: −log10 of the molar value.

What was measured:
HUH7 cells = test: XTT proliferation inhibition, HUH7; assay type: cell-based; conditions: Homo sapiens, Huh-7, HUH7, liver cancer (HCC), 72 h
Procedure: (§1) Cell lines: PANC-1. Organism: Homo sapiens, human/Tissue: Pancreas; Duct/Disease: Epithelioid Carcinoma HUH7. Organism: Homo sapiens, human/Tissue: Liver/Disease: Carcinoma; Hepatocellular NCI-H69. Organism: Homo sapiens, human/Tissue: Lung/Disease: NSCL U87 MG. Organism: Homo sapiens, human/Tissue: Brain/Disease: Glioma
(§2) PANC-1, HUH7, NCI-H69 and U87 MG cells are plated in one 96 well plate each, in their culture medium, at 7500 cells/well. Cells are allowed to attach for 16-24 hours at 37° C., 5% CO2. Thereafter, culture medium is discarded, and fresh culture medium is added to the cells, supplemented with elevating ST-1944 concentrations: 0.4, 2, 10 and 50 μM, 3 wells of each concentration (triplicates). The cells are incubated another 72±2 hours at 37° C., 5% CO2. At the end of incubation period, medium is discarded and 100 μL fresh culture medium is added to the cells along with 50 μL XTT reagent. The OD is measured in a plate reader once Vehicle treated cells are reach the range of 0.5-1.5 OD at 450 nm wavelength.
(§3) PANC-1 and HUH7culture medium: DMEM Medium (4.5 g/L glucose), supplemented with 10% FBS (heat inactivated), 2 mM L-Glutamine, and 1% of Pen/Strep Solution. U87 MG and NCI-H69 culture medium: EMEM Medium, supplemented with 10% FBS (heat inactivated), 2 mM L-Glutamine, and 1% of Pen/Strep Solution. […]

U87 MG cells = test: XTT proliferation inhibition, U87 MG; assay type: cell-based; conditions: Homo sapiens, U-87 MG, glioma (GBM), 72 h
Procedure: as §1, §2, §3

NCI-H69 cells = test: XTT proliferation inhibition, NCI-H69; assay type: cell-based; conditions: Homo sapiens, NCI-H69, lung cancer (NSCLC), 72 h
Procedure: as §1, §2, §3

PANC-1 cells = test: XTT proliferation inhibition, PANC-1; assay type: cell-based; conditions: Homo sapiens, Panc-1, pancreatic cancer, 72 h
Procedure: as §1, §2, §3

Huh-7 cells = test: Huh-7 cell survival, MTT assay; assay type: cell-based, human; conditions: 72 h
Procedure: Huh-7 cells (2000 per well, in 96-wells plate) were treated with 100 μM of each compound. Cell viability was measured by MTT assay after 72 h. Asterisks represent a comparison to vehicle control. ****p<0.0001. N=3 biological repeats. Error bars represent SEM.
(§4) FIGS. 5A-5D show how ST-480 and CQ kill Huh-7 cells in a dose-dependent manner. (5A) Surviving curves in 200 mM paraquat (PQ). Worms were treated with ST-480 at the indicated concentrations or with the vehicle as a control for 48 h. Afterward, they were treated with 200 mM PQ, and their survival was measured after 3 and 6 h. N=6 biological repeats, P values are indicated (compared with the vehicle control). Bar graphs displaying the survival of Huh-7 cells in different doses of CQ (4B) and ST-480 (5C) —the experimental setup was similar to that described in FIG. 1. Asterisks represent a comparison to vehicle control. N=3 biological repeats. (5D) Bar graph showing the combined effect of ST-480 and CQ on Huh-7 cells' survival after 72 h. *p<0.05, ***p<0.001, ****p<0.0001. N=3 biological repeats. *Error bars represent SEM.
ST-480, is one of the diamine compounds of the invention that inhibits liver cancer cell viability. […] Therefore, the activity of the polyamine compound of the invention in liver cancer therapy. To explore this, the inventors screened the effect of eight new compounds. In addition, the effect of two compounds in the context of lifespan, health-span, and proteotoxicity, i.e., the diamines VL-004 and VL-850 were examined, and the natural polyamine spermidine (Spd). Huh-7 cells (derived from hepatocellular carcinoma of a person) were exposed to 100 μM of each compound and examined their survival after 72 h using an MTT assay.
Chloroquine (CQ) has been used safely to treat malaria and to suppress autophagic flux. Moreover, as indicated above, it induces DNA damage and apoptosis in cancer cells. The effect of different CQ concentrations on Huh-7 cells' survival after 72 h were tested. In parallel, dose-response experiments testing ST-480 toxicity in these cells were performed.

Hep-3B cells [1] = test: Hep-3B cell survival; assay type: cell-based, human; conditions: single agent, 72 h
Procedure: (§5) FIGS. 6A-6E show how ST-480 and CQ effectively kill Hep-3B cancer cells. Bar graphs displaying the effects of ST-480 (6A) and CQ (6B) and their combined effect 6C) on Hep-3B cells' survival after 72 h—the experimental setup was similar Asterisks represent a comparison to vehicle control (6A and 6B) or towards (the same CQ concentration under vehicle treatment conditions (5C). *p<0.05, **p<0.01, ***p<0.001, ****p<0.0001. N=3 biological repeats. (5D) Representative images show the state of Hep-3B cells treated as described in (6C). Scale bar: 200 μm. (5E) BEAS-2B cells are not sensitive to ST-480, ns-non-significance. N-3. Error bars represent SEM.
(§6) To strengthen these conclusions, the impact of ST-480 and CQ was tested on another liver cancer cell line, namely Hep-3B′ the Hep-3B cell line originated from a person with primary hepatocellular carcinoma (HCC). […] In addition, the combined effect of ST-480 and CQ on Hep-3B survival was tested. […] In this respect, it should be emphasized that ST-480 was not toxic to non-cancer cells.

Hep-3B cells [2] = test: Mitophagy: colocalization of mitochondria and lysosomes in Hep-3B cells; assay type: cell-based, human; conditions: 100 μM, 6 h
Procedure: FIGS. 7A-7B show how ST-480 induces mitophagy. (7A) Colocalization of mitochondria and lysosome. Arrowheads indicate representative colocalization. The inset represents an eight-fold enlargement-scale bar: 50 μm. (7B) Colocalization quantification. N=3, ≥412 cells per treatment. *p<0.05, Error bars represent SEM.
ST-480 induces mitophagy in Hep-3B cells. To explore whether ST-480 induces mitophagy, Hep-3B cells were exposed to 100 μM ST-480 or vehicle control for 6 h. To measure mitophagy, the colocalization of mitochondria and lysosomes were quantified using specific mitochondrial and lysosomal dyes. In addition, nuclei were stained using a DNA dye—For this, the Cytopainter ab139487 kit, was used.

C. elegans = test: Survival of worms in 200 mM paraquat (oxidative stress resistance); assay type: in vivo; conditions: 48 h treatment, then 200 mM paraquat, survival after 3 and 6 h
Procedure: as §4
Chloroquine (CQ) enhances ST-480 cytotoxicity.

BEAS-2B cells = test: BEAS-2B non-cancer cell survival; assay type: cell-based; conditions: 70 µM and 100 μM, 72 h
Procedure: as §5, §6

Row | SMILES | pIC50 (HUH7 cells) | pIC50 (U87 MG cells) | pIC50 (NCI-H69 cells) | pIC50 (PANC-1 cells) | Huh-7 cells' survival, dose response (Huh-7 cells; CQ at 7, 8, and 10 μM) | Hep-3B cells' survival (Hep-3B cells [1]) | Huh-7 cell survival (Huh-7 cells; 100 μM, MTT assay) | Huh-7 cells' survival, dose response (Huh-7 cells; ST-480 at 60, 80, and 100 μM) | mitophagy (colocalization of mitochondria and lysosomes) (Hep-3B cells [2]) | resistance to oxidative stress (C. elegans) | cell death of non-cancer BEAS-2B cells (BEAS-2B cells)
1 | Cn1ccnc1SCCCCc1ccccc1CCCCSc1nccn1C [ST-1944] | 5.70 | 5.00 | 5.00 | 6.00 |  |  |  |  |  |  | 
2 | CCN(CC)CCCC(C)Nc1ccnc2cc(Cl)ccc12 (stereo not drawn) [CQ, chloroquine, reference compound] |  |  |  |  | significantly decreased cells' survival | sensitive to both ST-480 and CQ in a dose-dependent manner |  |  |  |  | 
3 | NCCCCc1ccccc1CCCCN [ST-480] |  |  |  |  |  | sensitive to both ST-480 and CQ in a dose-dependent manner | significantly decreased Huh-7 cell survival | significantly decreased cells' survival | induces mitophagy in a significant manner | confer resistance to oxidative stress | did not observe a significant cell death
